# Source: ChEMBL document CHEMBL3751805, “Novel Tacrine-Benzofuran Hybrids as Potent Multitarget-Directed Ligands for the Treatment of Alzheimer's Disease: Design, Synthesis, Biological Evaluation, and X-ray Crystallography” (J Med Chem, 2016)
# Active and inactive are the calls of the source. The rule behind the calls is not given here.
# Target: T1, Acetylcholinesterase (Homo sapiens, UniProt P22303)
# Test: Mixed-type inhibition of recombinant human AChE using acetylthiocholine iodide as substrate assessed as enzyme-inhibitor complex by Lineweaver-Burk double reciprocal plot method
# Conditions: not given
# T1 sequence (P22303 whole entry): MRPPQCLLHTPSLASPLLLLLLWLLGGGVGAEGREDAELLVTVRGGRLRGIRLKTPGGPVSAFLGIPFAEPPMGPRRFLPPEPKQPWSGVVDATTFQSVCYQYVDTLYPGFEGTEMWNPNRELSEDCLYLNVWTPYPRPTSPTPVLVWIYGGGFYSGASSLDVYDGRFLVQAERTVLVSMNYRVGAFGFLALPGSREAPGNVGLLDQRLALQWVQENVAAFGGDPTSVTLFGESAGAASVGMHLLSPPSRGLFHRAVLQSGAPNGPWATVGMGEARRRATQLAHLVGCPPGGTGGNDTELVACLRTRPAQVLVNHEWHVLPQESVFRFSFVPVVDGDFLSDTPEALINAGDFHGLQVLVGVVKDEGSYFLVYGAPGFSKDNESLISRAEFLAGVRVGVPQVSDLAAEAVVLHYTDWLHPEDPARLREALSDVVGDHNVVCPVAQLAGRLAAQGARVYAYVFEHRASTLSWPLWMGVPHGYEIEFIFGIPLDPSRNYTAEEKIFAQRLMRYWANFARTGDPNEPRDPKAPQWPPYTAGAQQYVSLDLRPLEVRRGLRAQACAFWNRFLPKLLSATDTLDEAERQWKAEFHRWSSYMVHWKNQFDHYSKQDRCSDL
row,SMILES,Ki [nM]
1,c1ccc2oc(CNCCCCCCCNc3c4c(nc5ccccc35)CCCC4)cc2c1,0.72

# Target: T1, Acetylcholinesterase
# Test: Mixed-type inhibition of recombinant human AChE using acetylthiocholine iodide as substrate assessed as enzyme-substrate-inhibitor complex by Lineweaver-Burk double reciprocal plot method
# Conditions: not given
row,SMILES,Ki [nM]
1,c1ccc2oc(CNCCCCCCCNc3c4c(nc5ccccc35)CCCC4)cc2c1,1.04

# Target: T2, Beta-secretase 1 (Homo sapiens, UniProt P56817)
# T2 sequence (P56817 whole entry): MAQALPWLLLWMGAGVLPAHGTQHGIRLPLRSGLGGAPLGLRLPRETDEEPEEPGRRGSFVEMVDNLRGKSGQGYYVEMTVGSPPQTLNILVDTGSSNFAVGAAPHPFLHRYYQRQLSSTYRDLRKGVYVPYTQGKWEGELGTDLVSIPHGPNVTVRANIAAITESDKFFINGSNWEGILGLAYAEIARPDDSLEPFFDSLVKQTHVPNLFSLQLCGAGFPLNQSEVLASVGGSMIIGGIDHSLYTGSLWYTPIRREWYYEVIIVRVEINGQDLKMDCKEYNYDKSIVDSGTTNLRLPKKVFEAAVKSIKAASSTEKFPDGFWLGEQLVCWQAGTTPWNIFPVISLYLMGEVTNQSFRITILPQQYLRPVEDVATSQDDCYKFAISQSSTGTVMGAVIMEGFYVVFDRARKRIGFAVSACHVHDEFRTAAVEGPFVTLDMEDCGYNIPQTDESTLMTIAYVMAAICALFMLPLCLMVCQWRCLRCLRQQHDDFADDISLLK
# Test: Inhibition of BACE-1 (unknown origin) using M-2420 as substrate preincubated for 1 hr followed by substrate addition measured after 15 mins by FRET assay
# Conditions: not given
row,SMILES,IC50 [nM]
1,NC1=NC(c2ccc(F)cc2)NC(=O)N1 (stereo not drawn),18000

# Target: T3, Amyloid-beta precursor protein (Homo sapiens, UniProt P05067)
# T3 sequence (P05067 whole entry): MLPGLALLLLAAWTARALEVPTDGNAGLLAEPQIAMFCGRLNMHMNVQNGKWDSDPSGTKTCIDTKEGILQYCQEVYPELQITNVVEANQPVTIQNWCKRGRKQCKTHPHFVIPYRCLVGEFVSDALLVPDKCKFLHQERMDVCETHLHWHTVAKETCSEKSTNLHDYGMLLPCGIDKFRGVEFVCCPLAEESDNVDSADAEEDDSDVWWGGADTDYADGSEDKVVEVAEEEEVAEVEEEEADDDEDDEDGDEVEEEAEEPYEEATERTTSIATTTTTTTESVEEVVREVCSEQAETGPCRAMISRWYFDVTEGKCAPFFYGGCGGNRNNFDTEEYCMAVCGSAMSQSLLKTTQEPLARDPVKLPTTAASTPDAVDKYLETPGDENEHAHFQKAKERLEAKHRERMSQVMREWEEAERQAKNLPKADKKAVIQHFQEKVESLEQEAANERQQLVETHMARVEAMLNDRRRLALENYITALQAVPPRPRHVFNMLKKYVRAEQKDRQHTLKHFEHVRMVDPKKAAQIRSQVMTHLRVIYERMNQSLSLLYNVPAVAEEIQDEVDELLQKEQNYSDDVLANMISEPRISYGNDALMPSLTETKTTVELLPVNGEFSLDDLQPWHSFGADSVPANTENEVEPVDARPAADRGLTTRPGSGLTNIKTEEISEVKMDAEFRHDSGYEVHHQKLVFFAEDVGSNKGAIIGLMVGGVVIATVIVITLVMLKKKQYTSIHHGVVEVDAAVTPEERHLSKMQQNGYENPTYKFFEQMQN
# Test: Inhibition of Amyloid beta (1 to 42) (unknown origin) self-induced aggregation incubated for 24 hrs by Thioflavin T-based fluorometric assay
# Conditions: not given
row,SMILES,IC50 [nM]
1,c1ccc2c(NCCCCCCCNc3c4c(nc5ccccc35)CCCC4)c3c(nc2c1)CCCC3,8400

# Target: T4, Acetylcholinesterase (Torpedo californica, UniProt P04058)
# T4 sequence (P04058 whole entry): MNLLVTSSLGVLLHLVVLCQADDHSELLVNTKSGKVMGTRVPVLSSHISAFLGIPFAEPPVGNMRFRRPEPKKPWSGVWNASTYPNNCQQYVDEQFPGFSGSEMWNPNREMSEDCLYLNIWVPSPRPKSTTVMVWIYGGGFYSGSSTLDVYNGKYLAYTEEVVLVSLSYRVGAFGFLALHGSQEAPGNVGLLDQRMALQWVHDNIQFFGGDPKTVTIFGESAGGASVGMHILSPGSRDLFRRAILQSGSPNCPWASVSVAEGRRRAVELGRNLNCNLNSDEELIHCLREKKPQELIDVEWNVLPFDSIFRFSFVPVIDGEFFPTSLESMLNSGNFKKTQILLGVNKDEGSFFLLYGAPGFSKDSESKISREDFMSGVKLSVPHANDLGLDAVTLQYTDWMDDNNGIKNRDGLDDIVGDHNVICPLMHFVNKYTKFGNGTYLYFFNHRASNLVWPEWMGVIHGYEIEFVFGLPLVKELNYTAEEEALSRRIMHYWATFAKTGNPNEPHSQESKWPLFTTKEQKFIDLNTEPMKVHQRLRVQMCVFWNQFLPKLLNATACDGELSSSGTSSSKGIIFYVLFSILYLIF
# Test: Competitive inhibition of Torpedo californica AChE using ATCh as substrate assessed as dissociation rate constant preincubated for 90 mins followed by substrate addition by potentiometric titration method
# Design: species or system Tetronarce californica
# Conditions: not given
row,SMILES,Kd [s⁻¹]
1,c1ccc2oc(CNCCCCCCCNc3c4c(nc5ccccc35)CCCC4)cc2c1,0.032

# Target: T4, Acetylcholinesterase
# Test: Noncompetitive inhibition of Torpedo californica AChE using ATCh as substrate assessed as dissociation rate constant preincubated for 90 mins followed by substrate addition by potentiometric titration method
# Design: species or system Tetronarce californica
# Conditions: not given
row,SMILES,Kd [s⁻¹]
1,c1ccc2oc(CNCCCCCCCNc3c4c(nc5ccccc35)CCCC4)cc2c1,0.031

# Target: T4, Acetylcholinesterase
# Test: Competitive inhibition of Torpedo californica AChE using ATCh as substrate preincubated for 90 mins followed by substrate addition by potentiometric titration method
# Design: species or system Tetronarce californica
# Conditions: not given
row,SMILES,Ki [nM]
1,c1ccc2oc(CNCCCCCCCNc3c4c(nc5ccccc35)CCCC4)cc2c1,2.2

# Target: T4, Acetylcholinesterase
# Test: Noncompetitive inhibition of Torpedo californica AChE using ATCh as substrate preincubated for 90 mins followed by substrate addition by potentiometric titration method
# Design: species or system Tetronarce californica
# Conditions: not given
row,SMILES,Ki [nM]
1,c1ccc2oc(CNCCCCCCCNc3c4c(nc5ccccc35)CCCC4)cc2c1,2.1

# System: SH-SY5Y
# Test: Cytotoxicity against human SH-SY5Y cells assessed as reduction in cell viability at 3 to 30 uM after 48 hrs by MTT assay
# Assay type: cell-based
# Conditions: not given
row,SMILES,Activity
1,O=C(NCCCCCCCNc1c2c(nc3ccccc13)CCCC2)c1cc2ccccc2o1,Toxic
2,COc1cccc2cc(CN(CCCCCCNc3c4c(nc5ccccc35)CCCC4)Cc3cc4cccc(OC)c4o3)oc12,Toxic

# System: Mus musculus
# Test: not given
# Assay type: toxicity, organism-based, ICR
# Conditions: in vivo, po, 30 mg/kg, 8 h
row,SMILES,Activity [U/L]
1,c1ccc2oc(CNCCCCCCCNc3c4c(nc5ccccc35)CCCC4)cc2c1,45.1

# System: Mus musculus
# Test: Hepatotoxicity in ICR mouse assessed as serum alanine aminotransferase level dosed ig at equimolar dose of 30 mg/kg tacrine after 22 hrs by spectrophotometry analysis (reference value: 40.1 +/- 9.9 U/L)
# Assay type: toxicity, organism-based
# Conditions: in vivo, po
row,SMILES,Activity [U/L]
1,c1ccc2oc(CNCCCCCCCNc3c4c(nc5ccccc35)CCCC4)cc2c1,48.2

# System: Mus musculus
# Test: Hepatotoxicity in ICR mouse assessed as serum alanine aminotransferase level dosed ig at equimolar dose of 30 mg/kg tacrine after 36 hrs by spectrophotometry analysis (reference value: 38.1 +/- 8.2 U/L)
# Assay type: toxicity, organism-based
# Conditions: in vivo, po
row,SMILES,Activity [U/L]
1,c1ccc2oc(CNCCCCCCCNc3c4c(nc5ccccc35)CCCC4)cc2c1,42

# System: Mus musculus
# Test: Hepatotoxicity in ICR mouse assessed as serum aspartate aminotransferase level dosed ig at equimolar dose of 30 mg/kg tacrine after 8 hrs by spectrophotometry analysis (reference value: 113.3 +/- 30 U/L)
# Assay type: toxicity, organism-based
# Conditions: in vivo, po
row,SMILES,Activity [U/L]
1,c1ccc2oc(CNCCCCCCCNc3c4c(nc5ccccc35)CCCC4)cc2c1,138.3

# System: Mus musculus
# Test: Hepatotoxicity in ICR mouse assessed as serum aspartate aminotransferase level dosed ig at equimolar dose of 30 mg/kg tacrine after 22 hrs by spectrophotometry analysis (reference value: […] +/- 31.1 U/L)
# Assay type: toxicity, organism-based
# Conditions: in vivo, po
row,SMILES,Activity [U/L]
1,c1ccc2oc(CNCCCCCCCNc3c4c(nc5ccccc35)CCCC4)cc2c1,134.5

# System: Mus musculus
# Test: not given
# Assay type: toxicity, organism-based, ICR
# Conditions: in vivo, po, 30 mg/kg, 36 h
row,SMILES,Activity [U/L]
1,c1ccc2oc(CNCCCCCCCNc3c4c(nc5ccccc35)CCCC4)cc2c1,114.7

# System: Mus musculus
# Test: Hepatotoxicity in ICR mouse assessed as elevation in serum alanine aminotransferase level dosed ig at equimolar dose of 30 mg/kg tacrine after 8 hrs by spectrophotometry analysis relative to control
# Assay type: toxicity, organism-based
# Conditions: in vivo, po
row,SMILES,fold change (FC)
1,c1ccc2oc(CNCCCCCCCNc3c4c(nc5ccccc35)CCCC4)cc2c1,1.16

# System: Mus musculus
# Test: Hepatotoxicity in ICR mouse assessed as elevation in serum aspartate aminotransferase level dosed ig at equimolar dose of 30 mg/kg tacrine after 8 hrs by spectrophotometry analysis relative to control
# Assay type: toxicity, organism-based
# Conditions: in vivo, po
row,SMILES,fold change (FC)
1,c1ccc2oc(CNCCCCCCCNc3c4c(nc5ccccc35)CCCC4)cc2c1,1.22

# Target: Cholinesterase (Homo sapiens, UniProt P06276)
# Sequence (P06276 whole entry): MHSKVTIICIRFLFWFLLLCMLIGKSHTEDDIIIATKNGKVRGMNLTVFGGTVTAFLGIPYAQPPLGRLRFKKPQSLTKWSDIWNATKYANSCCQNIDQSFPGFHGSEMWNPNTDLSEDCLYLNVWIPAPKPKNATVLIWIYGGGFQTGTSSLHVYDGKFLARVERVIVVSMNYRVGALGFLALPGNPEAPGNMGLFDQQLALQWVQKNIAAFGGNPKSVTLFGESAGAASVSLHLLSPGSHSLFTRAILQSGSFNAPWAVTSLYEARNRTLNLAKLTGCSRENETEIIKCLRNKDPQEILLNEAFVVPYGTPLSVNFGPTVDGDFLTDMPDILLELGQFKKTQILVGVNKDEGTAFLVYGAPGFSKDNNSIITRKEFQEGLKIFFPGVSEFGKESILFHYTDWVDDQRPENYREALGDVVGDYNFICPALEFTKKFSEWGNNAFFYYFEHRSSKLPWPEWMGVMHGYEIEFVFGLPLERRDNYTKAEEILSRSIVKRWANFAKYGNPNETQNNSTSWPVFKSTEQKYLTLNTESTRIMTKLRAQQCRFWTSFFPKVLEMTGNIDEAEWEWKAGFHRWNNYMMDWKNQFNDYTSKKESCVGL
# Test: not given
# Conditions: not given
row,SMILES,IC50 [nM]
1,c1ccc2oc(CN(CCCCCCCNc3c4c(nc5ccccc35)CCCC4)Cc3cc4ccccc4o3)cc2c1,6.86
2,COc1cccc2cc(C(=O)NCCCCCCCNc3c4c(nc5ccccc35)CCC4)oc12,26.1
3,c1ccc2oc(CN(CCCCCCCNc3c4c(nc5ccccc35)CCCCC4)Cc3cc4ccccc4o3)cc2c1,17.9
4,COc1cccc2cc(CN(CCCCCCNc3c4c(nc5ccccc35)CCCCC4)Cc3cc4cccc(OC)c4o3)oc12,2.35
5,c1ccc2oc(CN(CCCCCCCNc3c4c(nc5ccccc35)CCC4)Cc3cc4ccccc4o3)cc2c1,12.8
6,O=C(NCCCCCCCNc1c2c(nc3ccccc13)CCC2)c1cc2ccccc2o1,30.9
7,O=C(NCCCCCCCNc1c2c(nc3ccccc13)CCCCC2)c1cc2ccccc2o1,11.6
8,O=C(NCCCCCCNc1c2c(nc3ccccc13)CCCC2)c1cc2ccccc2o1,4.68
9,c1ccc2oc(CN(CCCCCCNc3c4c(nc5ccccc35)CCC4)Cc3cc4ccccc4o3)cc2c1,8.89
10,c1ccc2oc(CNCCCCCCCNc3c4c(nc5ccccc35)CCCC4)cc2c1,2.18
11,O=C(NCCCCCCCNc1c2c(nc3ccccc13)CCCC2)c1cc2ccccc2o1,6.9
12,COc1cccc2cc(CN(CCCCCCNc3c4c(nc5ccccc35)CCCC4)Cc3cc4cccc(OC)c4o3)oc12,0.48

# Target: T2, Beta-secretase 1
# Test: not given
# Conditions: not given
row,SMILES,IC50 [nM]
1,c1ccc2oc(CN(CCCCCCCNc3c4c(nc5ccccc35)CCCC4)Cc3cc4ccccc4o3)cc2c1,620
2,c1ccc2oc(CNCCCCCCCNc3c4c(nc5ccccc35)CCCC4)cc2c1,1350
3,COc1cccc2cc(CN(CCCCCCNc3c4c(nc5ccccc35)CCCC4)Cc3cc4cccc(OC)c4o3)oc12,190

# Target: T1, Acetylcholinesterase
# Test: not given
# Conditions: not given
row,SMILES,IC50 [nM]
1,c1ccc2oc(CN(CCCCCCCNc3c4c(nc5ccccc35)CCCC4)Cc3cc4ccccc4o3)cc2c1,117
2,COc1cccc2cc(C(=O)NCCCCCCCNc3c4c(nc5ccccc35)CCC4)oc12,993
3,c1ccc2oc(CN(CCCCCCCNc3c4c(nc5ccccc35)CCCCC4)Cc3cc4ccccc4o3)cc2c1,200
4,COc1cccc2cc(CN(CCCCCCNc3c4c(nc5ccccc35)CCCCC4)Cc3cc4cccc(OC)c4o3)oc12,1040
5,c1ccc2oc(CN(CCCCCCCNc3c4c(nc5ccccc35)CCC4)Cc3cc4ccccc4o3)cc2c1,222
6,O=C(NCCCCCCCNc1c2c(nc3ccccc13)CCC2)c1cc2ccccc2o1,48.6
7,O=C(NCCCCCCCNc1c2c(nc3ccccc13)CCCCC2)c1cc2ccccc2o1,323
8,O=C(NCCCCCCNc1c2c(nc3ccccc13)CCCC2)c1cc2ccccc2o1,424
9,c1ccc2oc(CN(CCCCCCNc3c4c(nc5ccccc35)CCC4)Cc3cc4ccccc4o3)cc2c1,2070
10,c1ccc2oc(CNCCCCCCCNc3c4c(nc5ccccc35)CCCC4)cc2c1,0.86
11,O=C(NCCCCCCCNc1c2c(nc3ccccc13)CCCC2)c1cc2ccccc2o1,76.9
12,COc1cccc2cc(CN(CCCCCCNc3c4c(nc5ccccc35)CCCC4)Cc3cc4cccc(OC)c4o3)oc12,260

# Target: T3, Amyloid-beta precursor protein
# Test: not given
# Conditions: at 10 µM
row,SMILES,inhibition [%]
1,c1ccc2oc(CN(CCCCCCCNc3c4c(nc5ccccc35)CCCC4)Cc3cc4ccccc4o3)cc2c1,44.5
2,COc1cccc2cc(C(=O)NCCCCCCCNc3c4c(nc5ccccc35)CCC4)oc12,19.6
3,c1ccc2oc(CN(CCCCCCCNc3c4c(nc5ccccc35)CCCCC4)Cc3cc4ccccc4o3)cc2c1,39.8
4,COc1cccc2cc(CN(CCCCCCNc3c4c(nc5ccccc35)CCCCC4)Cc3cc4cccc(OC)c4o3)oc12,25
5,c1ccc2oc(CN(CCCCCCCNc3c4c(nc5ccccc35)CCC4)Cc3cc4ccccc4o3)cc2c1,30.7
6,O=C(NCCCCCCCNc1c2c(nc3ccccc13)CCC2)c1cc2ccccc2o1,10.2
7,O=C(NCCCCCCCNc1c2c(nc3ccccc13)CCCCC2)c1cc2ccccc2o1,17.3
8,O=C(NCCCCCCNc1c2c(nc3ccccc13)CCCC2)c1cc2ccccc2o1,13.7
9,c1ccc2oc(CN(CCCCCCNc3c4c(nc5ccccc35)CCC4)Cc3cc4ccccc4o3)cc2c1,62.2
10,c1ccc2oc(CNCCCCCCCNc3c4c(nc5ccccc35)CCCC4)cc2c1,61.3
11,c1ccc2c(NCCCCCCCNc3c4c(nc5ccccc35)CCCC4)c3c(nc2c1)CCCC3,50.1
12,O=C(NCCCCCCCNc1c2c(nc3ccccc13)CCCC2)c1cc2ccccc2o1,26.2
13,COc1cccc2cc(CN(CCCCCCNc3c4c(nc5ccccc35)CCCC4)Cc3cc4cccc(OC)c4o3)oc12,44.6

# Target: Acetylcholinesterase (Torpedo californica) (UniProt P04058)
# Sequence (P04058 22-564 limits assumed): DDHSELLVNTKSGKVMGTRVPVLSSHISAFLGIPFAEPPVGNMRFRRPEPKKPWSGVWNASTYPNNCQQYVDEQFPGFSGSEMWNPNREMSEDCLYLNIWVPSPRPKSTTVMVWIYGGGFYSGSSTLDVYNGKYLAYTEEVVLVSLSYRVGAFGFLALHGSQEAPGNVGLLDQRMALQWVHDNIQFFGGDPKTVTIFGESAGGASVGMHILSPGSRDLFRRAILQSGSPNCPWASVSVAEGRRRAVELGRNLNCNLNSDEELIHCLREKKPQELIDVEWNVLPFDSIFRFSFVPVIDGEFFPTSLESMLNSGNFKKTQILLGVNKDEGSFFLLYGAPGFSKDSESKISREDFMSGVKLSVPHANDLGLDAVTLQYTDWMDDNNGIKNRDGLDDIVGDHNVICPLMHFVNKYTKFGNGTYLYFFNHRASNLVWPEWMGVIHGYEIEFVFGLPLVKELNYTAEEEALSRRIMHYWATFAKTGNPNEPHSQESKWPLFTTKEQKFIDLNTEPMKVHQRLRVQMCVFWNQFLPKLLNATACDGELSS
# Test: not given
# Conditions: Tetronarce californica; 1 to 10 nM
row,SMILES,inhibition
1,c1ccc2oc(CNCCCCCCCNc3c4c(nc5ccccc35)CCCC4)cc2c1,Active

# Target: Acetylcholinesterase (Torpedo californica) (UniProt P04058)
# Test: not given
# Conditions: Tetronarce californica; 0.3 nM
row,SMILES,inhibition
1,c1ccc2oc(CNCCCCCCCNc3c4c(nc5ccccc35)CCCC4)cc2c1,Active

# Target: Acetylcholinesterase (Torpedo californica) (UniProt P04058)
# Test: not given
# Conditions: Tetronarce californica
row,SMILES,Ka [×10⁷ /M/s]
1,c1ccc2oc(CNCCCCCCCNc3c4c(nc5ccccc35)CCCC4)cc2c1,1.45

# Target: Acetylcholinesterase (Torpedo californica) (UniProt P04058)
# Test: not given
# Conditions: Tetronarce californica
# Remark: another data set of the same source
row,SMILES,Ka [×10⁷ /M/s]
1,c1ccc2oc(CNCCCCCCCNc3c4c(nc5ccccc35)CCCC4)cc2c1,1.45

# System: not listed separately
# Test: in vitro
# Conditions: human, SH-SY5Y cells
# Description: Cytotoxicity against human SH-SY5Y cells assessed as cell viability at 30 uM after 48 hrs by MTT assay
row,SMILES,"viability at 48 h, 30 µM [%]"
1,c1ccc2oc(CNCCCCCCCNc3c4c(nc5ccccc35)CCCC4)cc2c1,63
